Laboratory results: ChEMBL document CHEMBL5518235, “Identification of Novel Series of Potent and Selective Relaxin Family Peptide Receptor 1 (RXFP1) Agonists” (J Med Chem, 2024)

Assays:
[1] = target: T1, Relaxin receptor 1 (Homo sapiens) (UniProt Q9HBX9); assay: Agonist activity at human RXFP1 expressed in T-Rex-CHO-K1 cells assessed as stimulation of cAMP production by measuring maximal efficacy at 50 uM incubated for 45 mins by HTRF assay relative to control; format: functional, cell-based
T1 sequence (whole entry): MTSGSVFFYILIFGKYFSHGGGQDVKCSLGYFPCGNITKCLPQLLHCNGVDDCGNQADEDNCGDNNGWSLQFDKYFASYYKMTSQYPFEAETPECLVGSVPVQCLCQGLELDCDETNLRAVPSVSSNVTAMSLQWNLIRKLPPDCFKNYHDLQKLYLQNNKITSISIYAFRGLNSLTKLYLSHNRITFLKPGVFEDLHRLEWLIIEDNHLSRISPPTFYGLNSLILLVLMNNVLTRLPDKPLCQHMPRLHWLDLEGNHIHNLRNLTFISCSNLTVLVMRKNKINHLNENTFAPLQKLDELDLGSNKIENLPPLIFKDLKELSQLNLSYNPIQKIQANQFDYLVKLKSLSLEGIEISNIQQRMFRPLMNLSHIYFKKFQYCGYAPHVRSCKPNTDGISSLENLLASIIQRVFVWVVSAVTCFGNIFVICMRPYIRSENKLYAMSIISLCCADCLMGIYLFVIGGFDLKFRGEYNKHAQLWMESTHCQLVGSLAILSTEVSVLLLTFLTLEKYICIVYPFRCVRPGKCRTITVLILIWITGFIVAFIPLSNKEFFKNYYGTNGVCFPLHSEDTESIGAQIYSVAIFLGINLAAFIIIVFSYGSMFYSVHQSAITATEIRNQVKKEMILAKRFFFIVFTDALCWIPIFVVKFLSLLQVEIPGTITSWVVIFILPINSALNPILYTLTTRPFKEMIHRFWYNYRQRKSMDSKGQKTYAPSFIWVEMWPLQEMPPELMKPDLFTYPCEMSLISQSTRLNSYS

[2] = Lipophilicity, logD of the compound in 1-octanol and phosphate buffer at pH 7.4 incubated for 3 hrs by shake flask method based LC/MS/MS analysis; format: physicochemical; details: 1-octanol/phosphate buffer, pH 7.4
[3] = Metabolic stability in human liver microsomes assessed as intrinsic clearance at 1 uM incubated for 30 mins in presence of NADPH by LC-MS/MS analysis; format: ADME, Microsome; details: liver microsomes, read-out: CLH
[4] = Metabolic stability in human liver microsomes assessed as unbound intrinsic clearance at 1 uM incubated for 30 mins in presence of NADPH by LC-MS/MS analysis; format: ADME, Microsome; details: 0.5 h
Relaxin receptor 1 = target: T2, Relaxin receptor 1 (Homo sapiens, UniProt Q9HBX9); assay: Agonist activity at human RXFP1 expressed in T-Rex-CHO-K1 cells assessed as stimulation of cAMP production incubated for 45 mins by HTRF assay; format: functional, cell-based
T2 sequence (Q9HBX9 whole entry): T1 sequence (whole entry)

[5] = Metabolic stability in cryopreserved human hepatocytes assessed as unbound intrinsic clearance measured per 10^6 cells at 1 uM measured after 120 mins by LC-MS/MS analysis; format: ADME, cell-based, Hepatocyte; details: 2 h
[6] = Metabolic stability in cryopreserved human hepatocytes assessed as intrinsic clearance measured per 10^6 cells at 1 uM after 120 mins by LC-MS/MS analysis; format: ADME, cell-based, Hepatocyte; details: cryopreserved hepatocytes, read-out: CLH

Emax ([1]; filed as agonist) [%]	logD at 3 h [2]	microsomal CLint at 1 µM [3] [µL/min/mg]	CL free [4]	EC50 (Relaxin receptor 1) [nM]	CL free [5] [µL/min]	hepatocyte CLint at 1 µM [6] [µL/min/1e6 cells]	Emax [1] [%]	Structure (SMILES)
99	–	–	–	–	–	–	–	COc1cc(F)c(-c2ccc(C(=O)O)cc2)cc1C(=O)N[C@H]1[C@@H](C(=O)Nc2cccc(S(=O)(=O)C(F)(F)F)c2)[C@@H]2C=C[C@H]1C2
87	4.7	> 300	> 38 10^3uL/min/mg	1740	–	–	–	COc1ccc(-c2cccnc2)cc1C(=O)N[C@@H]1[C@H](C(=O)Nc2cccc(S(=O)(=O)C(F)(F)F)c2)[C@H]2C=C[C@@H]1C2 (racemic)
91	3.5	–	–	3980	91	10	–	COc1cc(F)c(O[C@H]2CC[C@@H](C(=O)O)CC2)cc1C(=O)N[C@H]1[C@H](C(=O)Nc2ccc(F)c(C(F)(F)F)c2)[C@@H]2C=C[C@H]1C2
42	1.6	–	–	> 50100	–	–	–	COc1cc(F)c(O[C@H]2CC[C@@H](C(=O)O)CC2)cc1C(=O)N[C@@H]1[C@H]2CC[C@H](C2)[C@@H]1C(=O)Nc1ccncc1
105	4.35	–	–	3.16	283	13	–	COc1cc(F)c(O[C@H]2CC[C@@](C)(C(=O)O)CC2)cc1C(=O)N[C@@H]1CCC[C@@H]1C(=O)Nc1ccc(F)c(S(F)(F)(F)(F)F)c1
104	2.8	–	–	–	51	11	–	COc1cc(F)c(O[C@H]2CC[C@@H](C(=O)O)CC2)cc1C(=O)N[C@@H]1[C@H]2CC[C@H](C2)[C@@H]1C(=O)Nc1cccc(C(F)F)c1
103	4.2	–	–	100	222	10	–	COc1cc(F)c(O[C@H]2CC[C@](C)(C(=O)O)CC2)cc1C(=O)N[C@@H]1[C@H]2CC[C@H](C2)[C@@H]1C(=O)Nc1cccc(S(=O)(=O)C(F)(F)F)c1
113	> 3	> 300	> 14 10^3uL/min/mg	1580	–	–	–	COc1cc(F)ccc1C(=O)N[C@@H]1[C@H](C(=O)Nc2cccc(S(=O)(=O)C(F)(F)F)c2)[C@H]2C=C[C@@H]1C2 (racemic)
114	–	–	–	15.8	32	7.5	–	COc1cc(F)c(O[C@H]2CC[C@@H](C(=O)O)CC2)cc1C(=O)N[C@H]1[C@@H](C(=O)Nc2ccc(F)c(S(=O)(=O)C(F)(F)F)c2)[C@@H]2C=C[C@H]1C2
81	3	–	–	2000	84	8.4	–	COc1cc(F)c(O[C@H]2CC[C@H](C(=O)O)CC2)cc1C(=O)N[C@H]1[C@@H](C(=O)Nc2cccc(S(=O)(=O)C(F)(F)F)c2)[C@@H]2C=C[C@H]1C2
111	1.9	–	–	3160	6.3	3	–	COc1cc(F)c(C(=O)N2CCC(C)(C(=O)O)CC2)cc1C(=O)N[C@H]1[C@@H](C(=O)Nc2cccc(S(=O)(=O)C(F)(F)F)c2)[C@@H]2C=C[C@H]1C2 (racemic)
119	2.9	–	–	251	89	16	–	COc1cc(F)c(OCCCCC(=O)O)cc1C(=O)N[C@H]1[C@@H](C(=O)Nc2cccc(S(=O)(=O)C(F)(F)F)c2)[C@@H]2C=C[C@H]1C2 (racemic)
98	2.5	–	–	7940	25	7.6	–	COc1cc(F)c(O[C@H]2CC[C@@H](C(=O)O)CC2)cc1C(=O)N[C@@H]1[C@H]2CC[C@H](C2)[C@@H]1C(=O)Nc1ccccc1
105	3.7	28	1.1 10^3uL/min/mg	200	–	–	–	COc1cc(F)c(-c2ccc(C[C@H](C(=O)O)N(C)C)cc2)cc1C(=O)N[C@@H]1[C@H]2CC[C@H](C2)[C@@H]1C(=O)Nc1cccc(S(=O)(=O)C(F)(F)F)c1
109	3.25	–	–	63.1	100	11	–	COc1cc(F)c(O[C@H]2CC[C@@H](C(=O)O)CC2)cc1C(=O)N[C@H]1[C@@H](C(=O)Nc2cccc(S(=O)(=O)C(F)(F)F)c2)[C@@H]2C=C[C@H]1C2

Further lines, the molecule ahead of its results:

Structure (SMILES)	Emax ([1]; filed as agonist) [%]	logD at 3 h [2]	microsomal CLint at 1 µM [3] [µL/min/mg]	CL free [4]	EC50 (Relaxin receptor 1) [nM]	CL free [5] [µL/min]	hepatocyte CLint at 1 µM [6] [µL/min/1e6 cells]	Emax [1] [%]
COc1cc(F)c(-c2ncc(C(=O)O)s2)cc1C(=O)N[C@H]1[C@@H](C(=O)Nc2cccc(S(=O)(=O)C(F)(F)F)c2)[C@@H]2C=C[C@H]1C2 (racemic)	111	1.7	13	65 µL/min/mg	631	–	–	–
COc1cc(F)c(-c2ccccc2)cc1C(=O)N[C@@H]1[C@H](C(=O)Nc2cccc(S(=O)(=O)C(F)(F)F)c2)[C@H]2C=C[C@@H]1C2 (racemic)	93	> 3.9	110	92 10^3uL/min/mg	912	–	–	–
COc1cc(F)c(O[C@H]2CC[C@@](C)(C(=O)O)CC2)cc1C(=O)N[C@@H]1[C@H]2CC[C@H](C2)[C@@H]1C(=O)Nc1cccc(S(=O)(=O)C(F)(F)F)c1	109	4.15	–	–	2	306	15	–
COc1cc(F)c(OCCCC(=O)O)cc1C(=O)N[C@H]1[C@@H](C(=O)Nc2cccc(S(=O)(=O)C(F)(F)F)c2)[C@@H]2C=C[C@H]1C2 (racemic)	114	2.5	–	–	1580	51	13	–
COc1cc(F)c(O[C@H]2CC[C@@](C)(C(=O)O)CC2)cc1C(=O)N[C@@H]1COC[C@@H]1C(=O)Nc1cccc(S(=O)(=O)C(F)(F)F)c1	104	2.6	–	–	126	23	6.3	–
COc1cc(F)c(Oc2ccc(C(=O)O)cc2)cc1C(=O)N[C@H]1[C@@H](C(=O)Nc2cccc(S(=O)(=O)C(F)(F)F)c2)[C@@H]2C=C[C@H]1C2 (racemic)	103	3.6	–	–	316	480	7.2	–
COc1cc(F)c(F)cc1C(=O)N[C@@H]1[C@H](C(=O)Nc2cccc(S(=O)(=O)C(F)(F)F)c2)[C@H]2C=C[C@@H]1C2 (racemic)	109	> 4.2	> 300	> 25 10^3uL/min/mg	794	–	–	–
COc1cc(F)c(O[C@H]2CC[C@@](C)(C(=O)O)CC2)cc1C(=O)N[C@@H]1C[C@@H](OC)C[C@@H]1C(=O)Nc1cccc(S(=O)(=O)C(F)(F)F)c1	110	3	–	–	25.1	26	6.2	–
COc1cnc(-c2ccc(C(=O)O)cc2)cc1C(=O)N[C@H]1[C@@H](C(=O)Nc2cccc(S(=O)(=O)C(F)(F)F)c2)[C@@H]2C=C[C@H]1C2 (racemic)	117	2.3	7	19 µL/min/mg	3980	–	–	–
COc1cc(F)c(O[C@H]2CC[C@@H](C(=O)O)CC2)cc1C(=O)N[C@@H]1[C@H](C(=O)Nc2ccc(F)c(C(F)(F)F)c2)[C@H]2C=C[C@@H]1C2	107	3.6	–	–	2570	42	4.8	–
COc1ccccc1C(=O)N[C@@H]1CCC[C@@H]1C(=O)Nc1cccc(S(=O)(=O)C(F)(F)F)c1 (racemic)	74	4.9	174	2.4 10^3uL/min/mg	> 50100	–	–	–
COc1ccccc1C(=O)N[C@H]1[C@@H](C(=O)Nc2cccc(S(=O)(=O)C(F)(F)F)c2)[C@H]2C=C[C@@H]1C2 (racemic)	–	3.5	140	0.35 10^3uL/min/mg	> 50100	–	–	37
